Earlier results, collected in patent US20050004010A1, “Cobalamin conjugates useful as imaging agents and as antitumor agents” (Mayo Foundation For Medical Education, priority 1999, published 2005).

Settings: L isomer versus D isomer

COc1cccc2c1C(=O)c1c(O)c3c(c(O)c1C2=O)C[C@@](O)(C(C)=O)C[C@@H]3O[C@H]1C[C@H](NC(=O)[C@@H](N)CC(C)C)C(O)[C@H](C)O1 (stereo partly drawn) [N-(L-leucyl) daunorubicin]
hydrolysis in vivo to regenerate daunorubicin: hydrolyzed in vivo to regenerate daunorubicin
